Source: ChEMBL document CHEMBL2021770, “Potent and Selective Inhibitors of Long Chain l-2-Hydroxy Acid Oxidase Reduced Blood Pressure in DOCA Salt-Treated Rats” (ACS Med Chem Lett, 2011)
Blank lines part the entries; values can stand above or below the compound they belong to. Calls of active or inactive are those of the source. No cut-off for these calls is given here.

Key:
[1] = target: T1, 2-Hydroxyacid oxidase 1 (Rattus norvegicus) (UniProt B0BNF9); test: Inhibition of rat His6-tagged Hao1 expressed in Escherichia coli BL21/DE3 using glcolic acid as substrate at 10 uM measured every 10 secs by spectrophotometry
T1 sequence (whole entry): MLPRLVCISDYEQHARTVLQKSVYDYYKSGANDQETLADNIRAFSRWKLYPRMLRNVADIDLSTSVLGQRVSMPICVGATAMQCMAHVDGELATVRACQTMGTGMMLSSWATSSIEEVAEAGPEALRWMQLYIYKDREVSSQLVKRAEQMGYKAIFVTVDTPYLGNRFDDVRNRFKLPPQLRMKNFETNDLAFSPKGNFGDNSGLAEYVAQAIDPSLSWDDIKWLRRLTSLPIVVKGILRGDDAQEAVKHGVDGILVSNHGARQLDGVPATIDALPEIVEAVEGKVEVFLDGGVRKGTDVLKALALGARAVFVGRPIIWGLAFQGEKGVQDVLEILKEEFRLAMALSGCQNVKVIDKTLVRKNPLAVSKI

[2] = target: Hydroxycarboxylic acid receptor 2 (Homo sapiens) (UniProt Q8TDS4); test: Agonist activity at human GPR109a at 10 uM; assay type: functional
HepG2 = test: Cytotoxicity against human HepG2 cells; assay type: cell-based
Rattus norvegicus [3] = test: Antihypertensive activity in DOCA-salt treated Wistar rat assessed as decrease in systolic blood pressure at 3 mg/kg, po bid administered 29 days after DOCA-salt-challenge for 15 days 12 to 15 hrs post-last dose by plethysmography; assay type: functional
Rattus norvegicus [4] = test: Antihypertensive activity in DOCA-salt treated Wistar rat assessed as decrease in systolic blood pressure at 30 mg/kg, po bid administered 29 days after DOCA-salt-challenge for 15 days 12 to 15 hrs post-last dose by plethysmography; assay type: functional, Artery
Rattus norvegicus [5] = test: (§1) Ex-vivo inhibition of Hao2 in DOCA-salt treated Wistar rat kidney using [3H]-2-hydroxyoctanate as substrate assessed as inhibition of [3H]-H2O production at 3 mg/kg, po bid administered 29 days post DOCA-challenge for 15 days measured 1 hr post-last dose by microbeta counting relative to vehicle-treated control; assay type: functional
Rattus norvegicus [6] = test: as §1, with “at 30” for “at 3”; assay type: functional
Rattus norvegicus [7] = test: as §1, with “12 to 15 hrs” for “1 hr”; assay type: functional
Rattus norvegicus [8] = test: as §1, with “at 30” for “at 3”, “measured 12 to 15 hrs” for “measured 1 hr”; assay type: functional
Rattus norvegicus [9] = species on record: Rattus norvegicus; test: Selectivity ratio of IC50 for rat Hao1 to IC50 for rat Hao2
2-Hydroxyacid oxidase 2 = target: T2, 2-Hydroxyacid oxidase 2 (Rattus norvegicus, UniProt Q07523); test: Inhibition of rat His6-tagged Hao2 expressed in Escherichia coli BL21/DE3 using 2-hydroxyoctanoic acid as substrate measured every 10 secs by spectrophotometry
T2 sequence (Q07523 whole entry): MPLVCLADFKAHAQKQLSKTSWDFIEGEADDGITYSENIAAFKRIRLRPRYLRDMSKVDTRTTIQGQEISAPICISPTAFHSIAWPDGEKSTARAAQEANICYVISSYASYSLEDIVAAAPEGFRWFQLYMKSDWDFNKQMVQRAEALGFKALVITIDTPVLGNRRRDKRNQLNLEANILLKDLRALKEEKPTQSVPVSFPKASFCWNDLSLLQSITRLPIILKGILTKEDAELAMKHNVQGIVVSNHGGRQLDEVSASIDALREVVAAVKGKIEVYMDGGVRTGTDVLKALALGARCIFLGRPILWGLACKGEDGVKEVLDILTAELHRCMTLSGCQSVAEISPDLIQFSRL

Rattus norvegicus [10] = test: Antihypertensive activity in DOCA-salt treated Wistar rat assessed as decrease in systolic blood pressure at 10 mg/kg, po bid administered 29 days after DOCA-salt-challenge for 15 days 12 to 15 hrs post-last dose by plethysmography; assay type: functional, organism-based; parameters: dose 10 mg/kg; settings: Artery

Chain of Hydroxycarboxylic acid receptor 2 (Homo sapiens) (Q8TDS4 whole entry): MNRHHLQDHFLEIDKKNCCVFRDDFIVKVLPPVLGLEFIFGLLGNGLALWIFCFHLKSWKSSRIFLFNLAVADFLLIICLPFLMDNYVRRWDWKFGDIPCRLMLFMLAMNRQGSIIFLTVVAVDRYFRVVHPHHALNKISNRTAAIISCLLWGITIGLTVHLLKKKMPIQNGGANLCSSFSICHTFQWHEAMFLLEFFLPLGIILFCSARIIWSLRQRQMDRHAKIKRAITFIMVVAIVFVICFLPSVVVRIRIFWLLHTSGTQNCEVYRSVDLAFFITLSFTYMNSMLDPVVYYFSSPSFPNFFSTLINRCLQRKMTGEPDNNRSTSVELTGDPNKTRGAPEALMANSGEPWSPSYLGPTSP

inhibition [1]: inactive | Activity [2]: inactive | Ratio IC50 (Rattus norvegicus [9]): 150
SMILES: Cc1n[nH]c(C(=O)O)c1Cc1cc2ccccc2s1
IC50 (HepG2): > 100 µM | Activity (Rattus norvegicus [3]): 27 mmHg | Activity (Rattus norvegicus [4]): 33 mmHg | inhibition in vivo at 3 mg/kg (Rattus norvegicus [5]): 75% | inhibition in vivo at 30 mg/kg (Rattus norvegicus [6]): 93% | inhibition in vivo at 3 mg/kg (Rattus norvegicus [7]): 0% | inhibition in vivo at 30 mg/kg (Rattus norvegicus [8]): 42%

IC50 (2-Hydroxyacid oxidase 2): 4.27 µM
SMILES: Cc1[nH]nc(C(=O)O)c1CCc1ccccc1

SMILES: CC(C)NCC(O)COc1ccc(CC(N)=O)cc1 (configuration not stated)
Activity (Rattus norvegicus [10]): Active
